This assay in a line: Biochemical Assay : 5 μl WT full length PAICS (final assay concentration, fac, 2.5 nM) in basic buffer, added to black, non-binding, 384-well plates (Corning #3575), columns 1 to 22. 5 μl basic buffer was added to columns 23+24 (negative control). PAICS stock at 31.9 μM from the PI's lab (Steve Firestine). Basic buffer contained 50 mM Tris-HCl pH8 and 0.5 mM EDTA, fac.1 μl compound in 100% DMSO added per well, or 1 μl 100% DMSO to positive controls (columns 1+2) and negative controls (columns 23+24). Final assay top concentration of compound either 1 mM or 30-μM, serially diluted with half-log dilutions across the plate in duplicate (one 10-point concentration response curve across wells 3 to 12, another across 13 to 22). Compounds pre-incubated with PAICS enzyme for 30 mins at RT. 2 μl CAIR added (fac 10 μM) in basic buffer plus 25 mM MgCl2 and 50 mM KHCO3 fac to all wells. CAIR stock 50 mM from Steve Firestine's lab. 1 hr RT incubation for AIR-CAIR equilibration. NB: ˜50% CAIR is decarboxylated during equilibration therefore 5 μM remains for the synthetase reaction.2 μl ATP/aspartic acid added (fac 30 μM/180 μM) in reaction buffer to all wells. 30 mins RT incubation for appropriate level of ATP turnover. […].

Molecules are shown by their SMILES. pIC50: −log10 of the molar value.

In the case of `Nc1nc(C(=O)Nc2cc(N3CCN(C(=O)OCC4CNC4)CC3)ccc2Cl)co1`, the pIC50 is less than 7.00.

The pIC50 is the negative decadic logarithm of the IC50, by convention in mol/L.

For the origin of these results see ChEMBL document CHEMBL5728360, “Oxazole derivatives for use in the treatment of cancer” (2021).
